Measured values as given in patent US9868746B2, “Substituted 5-aminothieno[2,3-C]pyridazine-6-carboxamide analogs as positive allosteric modulators of the muscarinic acetylcholine receptor M4” (Vanderbilt University, priority 2012, dated 2018).

Experiments:
mAChR M4 = target: T1, mAChR M4 (Homo sapiens, UniProt P08173); assay: mAChR M4 cell-based functional assay (calcium mobilization, potentiation of EC20 acetylcholine response); settings: for Emax at 30 µM: % ACh maximum at 30 μM; for EC50: mAChR M4 cell-based functional assay, >10,000 estimated for low potency compounds without plateau, read-out: EC50
T1 construct: expressed in transfected cells; host or cells: CHO-K1 cells stably transfected with M4 cDNA and chimeric G-protein Gqi5
T1 sequence (P08173 1-479): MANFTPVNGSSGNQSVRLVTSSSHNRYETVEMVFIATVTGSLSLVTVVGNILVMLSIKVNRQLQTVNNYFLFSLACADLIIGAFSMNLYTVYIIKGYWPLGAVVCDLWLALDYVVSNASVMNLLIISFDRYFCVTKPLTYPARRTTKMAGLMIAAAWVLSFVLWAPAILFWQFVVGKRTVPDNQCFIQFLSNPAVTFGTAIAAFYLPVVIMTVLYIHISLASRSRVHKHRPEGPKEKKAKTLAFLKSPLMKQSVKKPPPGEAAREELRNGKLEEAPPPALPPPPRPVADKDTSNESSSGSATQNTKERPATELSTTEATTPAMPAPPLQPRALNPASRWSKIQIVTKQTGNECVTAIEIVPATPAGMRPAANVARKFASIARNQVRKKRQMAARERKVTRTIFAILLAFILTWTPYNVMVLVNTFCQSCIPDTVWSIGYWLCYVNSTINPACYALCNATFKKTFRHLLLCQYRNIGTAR

[1] = hepatotoxicity of AChE inhibitors such as tacrine; cited from earlier work
[2] = tested on: Alzheimer's disease patients; settings: cited from earlier work
animal models = settings: cited from earlier work

| SMILES | Emax at 30 µM (mAChR M4) [%] | EC50 (mAChR M4) [nM] | other results |
| --- | --- | --- | --- |
| COc1ccc(CNC(=O)c2sc3nnc(C)c(C)c3c2N)cc1Br [Example B482] | 67 | 87 |  |
| Cc1nnc2sc(C(=O)NCc3ccc(-n4ccccc4=O)c(F)c3)c(N)c2c1C [Example B483] | 69 | 47 |  |
| Cc1cc(-c2ccc(CNC(=O)c3sc4nnc(C)c(C)c4c3N)cc2)cnc1F [Example B484] | 63 | 110 |  |
| COc1ncc(-c2ccc(CNC(=O)c3sc4nnc(C)c(C)c4c3N)cc2)cn1 [Example B485] | 58 | 48 |  |
| COc1ccc(-c2ccc(CNC(=O)c3sc4nnc(C)c(C)c4c3N)cc2)cn1 [Example B486] | 61 | 230 |  |
| Cc1nnc2sc(C(=O)NCc3ccc(-c4cncc(F)c4)cc3)c(N)c2c1C [Example B487] | 71 | 37 |  |
| COc1cncc(-c2ccc(CNC(=O)c3sc4nnc(C)c(C)c4c3N)cc2)c1 [Example B488] | 76 | 49 |  |
| Cc1nnc2sc(C(=O)NCc3ccc(S(=O)(=O)C(F)F)c(Cl)c3)c(N)c2c1C [Example B489] | 73 | 35 |  |
| Cc1nnc2sc(C(=O)NCc3ccc(-n4ccnc4)cc3)c(N)c2c1C [Example B490] | 61 | 20 |  |
| Cc1nnc2sc(C(=O)NCc3ccc(CN4CCCC4)cc3)c(N)c2c1C [Example B492] | 76 | 38 |  |
| Cc1nnc2sc(C(=O)NCc3ccc(CN4CCSCC4)cc3)c(N)c2c1C [Example B493] | 68 | 82 |  |
| Cc1nnc2sc(C(=O)NCc3ccc(-c4ccccc4O)cc3)c(N)c2c1C [Example B494] | 75 | 190 |  |
| Cc1nnc2sc(C(=O)NCc3ccc(-c4ccc(F)nc4F)cc3)c(N)c2c1C [Example B495] | 72 | 210 |  |
| Cc1nnc2sc(C(=O)NCc3ccc(-c4ccc5nccnc5c4)cc3)c(N)c2c1C [Example B496] | 66 | 250 |  |
| Cc1nnc2sc(C(=O)NCc3ccc(-c4cnc5ccccc5c4)cc3)c(N)c2c1C [Example B497] | 46 | 710 |  |
| Cc1cc(F)ncc1-c1ccc(CNC(=O)c2sc3nnc(C)c(C)c3c2N)cc1 [Example B498] | 82 | 330 |  |
| Cc1cncc(-c2ccc(CNC(=O)c3sc4nnc(C)c(C)c4c3N)cc2)c1 [Example B499] | 71 | 200 |  |
| Cc1nnc2sc(C(=O)NCc3ccc(-c4cc(O)ccc4Cl)cc3)c(N)c2c1C [Example B500] | 72 | 1800 |  |
| Nc1c2c(nc3ccccc13)CCCC2 [tacrine] |  |  | elevated liver transaminases observed in patients [1]: about 30 % of patients |
| CCCCCCOc1nsnc1C1=CCCN(C)C1 [xanomeline] |  |  | psychotic behavioral symptoms such as delusions, suspiciousness, vocal outbursts, and hallucinations ([2]; Bodick 1997): reduce psychotic behavioral symptoms; treatment induced side effects [2]: gastrointestinal effects; catalepsy in animal models (animal models; in vivo): without causing catalepsy; activity in animal models with similar profiles to known antipsychotic drugs (animal models; muscarinic agonist, Bymaster 1998, 1999, Shannon 1999, 2000): active in animal models |

Continued, in another order:

| Emax at 30 µM (mAChR M4) [%] | EC50 (mAChR M4) [nM] | SMILES | other results |
| --- | --- | --- | --- |
| 44 | 990 | Cc1nnc2sc(C(=O)NCc3ccc(-c4ccc5c(c4)OCO5)cc3)c(N)c2c1C [Example B501] |  |
| 66 | 580 | Cc1nnc2sc(C(=O)NCc3ccc(-c4ccsc4)cc3)c(N)c2c1C [Example B502] |  |
| 56 | 1100 | Cc1nnc2sc(C(=O)NCc3ccc(-c4cncc5ccccc45)cc3)c(N)c2c1C [Example B503] |  |
| 68 | 80 | Cc1nnc2sc(C(=O)NCc3ccc(CN4CCCCC4)cc3)c(N)c2c1C [Example B504] |  |
| 63 | 110 | Cc1nnc2sc(C(=O)NCc3ccc(S(=O)(=O)c4ccccc4)cc3)c(N)c2c1C [Example B505] |  |
| 70 | 150 | Cc1nnc2sc(C(=O)NCc3ccc(-n4cccn4)cc3)c(N)c2c1C [Example B506] |  |
| 66 | 510 | Cc1nnc2sc(C(=O)NCc3ccc(S(=O)(=O)C(F)F)cc3Cl)c(N)c2c1C [Example B507] |  |
| 54 | 770 | COc1ccc(CNC(=O)c2sc3nnc(C)c(C)c3c2N)nc1 [Example B508] |  |
| 59 | 1400 | Cc1nnc2sc(C(=O)NCc3ccc(F)cn3)c(N)c2c1C [Example B509] |  |
| 67 | 78 | Cc1nnc2sc(C(=O)NCc3ccc(-n4cncn4)cc3)c(N)c2c1C [Example B511] |  |
